In patent US20190192458A1, “THERAPEUTIC/PROPHYLACTIC AGENT FOR GRAFT-VERSUS-HOST DISEASE, FIBROCYTE INVASION INHIBITOR, AND INHIBITOR AGAINST TEAR REDUCTION AND REDUCTION IN GOBLET CELLS” (KEIO UNIVERSITY, priority 2016, published 2019):

How the values were obtained:
[1] = test system: endoplasmic reticulum stress markers and related inflammation markers in cGVHD target organs; test: Immunoblot analysis of endoplasmic reticulum stress markers and related inflammation markers in cGVHD target organs; type: in vivo, mouse; details: n=4
Method: Bone marrow transplantation was performed as described in the above section “Bone marrow transplantation,” and the resulting allogeneic bone marrow transplantation recipient mice were divided into two groups. One group was treated with intraperitoneal injection of PBA (10 mg/kg) (Aldrich) while the other was treated with intraperitoneal injection of a solvent vehicle⋅phosphate buffered saline (PBS) (pH 7.4). The allogeneic bone marrow transplantation recipients received once-daily administration of PBA or the solvent vehicle from Day 10 to Day 27 after bone marrow transplantation. They were sacrificed on Day 28 after bone marrow transplantation.
cGVHD-affected organs (exorbital lacrimal gland, proximal portion of the small intestine, dorsal skin, liver, salivary gland, lung, large intestine, and eyes) were analyzed herein.
Tissues of interest were each placed into an Eppendorf tube, and a pre-cooled RIPA buffer solution was then added to the tube. Subsequently, the tissues were each homogenized with an electric homogenizer. Samples were each allowed to stand on ice for 1 hour, and then centrifuged at 15000 rpm for 5 minutes at 4° C. Then, the supernatants were each collected in a fresh tube on ice, and used as a cell lysate. The cell lysates each received the same amount of a 5×Laemmli buffer solution, and each was heated at 100° C. for 5 minutes to denature proteins.
An aliquot of each sample having the same amount of proteins was loaded into a well of an SDS-PAGE gel, and then […]. Proteins were transferred from the gel to a membrane at 15 V for 20 minutes. The membrane was blocked at room temperature for 1 hour with 5% skim milk or 5% BSA (bovine serum albumin) in 1×TBST (a mixture of Tris-buffered saline and Tween 20). Subsequently, the membrane was incubated with a primary antibody at 4° C. overnight. The above primary antibody was diluted 1000 times with 5% skim milk or 5% BSA in 1×TBST. After incubation with the primary antibody, the membrane was washed with 1×TBST (3×10 minutes), and subjected to a secondary antibody at room temperature for 1 hour, and then washed with 1×TBST (3×10 minutes) and 1×TBS (2×10 minutes).
Proteins of interest were visualized by either one of the following two methods. (1) A target protein was colorimetrically detected using a BCIP/NBT substrate (Promega). (2) A signal was developed with an enhanced chemiluminescence (ECL) detection reagent (GE Healthcare), and a target protein was then visualized with an LAS4000 mini chemiluminescence imaging system (FUJIFILM Corporation/GE Healthcare).
The intensity of the resulting protein band was analyzed using image processing software ImageJ. Primary antibodies used in the experiments were GRP78 (Abcam), phospho-PERK (Thr980; Cell Signaling Technology Inc.), PERK (C33E10; Cell Signaling Technology Inc.), phosphor-IRE1α (Thermo Fisher Sceientific), IRE1α (14C10; Cell Signaling Technology Inc.), phosphor-eIF2α (119A11; Cell Signaling Technology Inc.), eIF2α (Cell Signaling Technology Inc.), CHOP (9C8; Thermo Fisher Scientific), TXNIP (D5F3E, Cell Signaling Technology Inc.), NF-κB (Abcam), HSP47 (SPA-470; Stress-Gen Biotechnologies Corp.), CTGF (Abcam), and β-actin (AC-15; Abcam).
With regard to the secondary antibody, (1) either AP-conjugated anti-mouse IgG antibody (Promega) or AP-conjugated anti-rabbit IgG antibody (Promega) was used when protein bands were chromogenically visualized; (2) HRP-conjugated anti-mouse antibody (Thermo Fisher Scientific) or HRP-conjugated anti-rabbit antibody (Thermo Fisher Scientific) was used when target proteins were detected by ECL.

[2] = test system: CHOP-expressing macrophages in lacrimal gland; test: Immunofluorescence of CD68/CHOP in lacrimal gland; type: in vivo; details: lacrimal gland from PBA-treated vs vehicle-treated mouse, FIG. 7A
Method: Bone marrow transplantation was performed as described in the above section “Bone marrow transplantation,” and the resulting allogeneic bone marrow transplantation recipient mice were divided into two groups. One group was treated with intraperitoneal injection of PBA (10 mg/kg) (Aldrich) while the other was treated with intraperitoneal injection of a solvent vehicle⋅phosphate buffered saline (PBS) (pH 7.4). The allogeneic bone marrow transplantation recipients received once-daily administration of PBA or the solvent vehicle from Day 10 to Day 27 after bone marrow transplantation. They were sacrificed on Day 28 after bone marrow transplantation. […]
Fluorescence images were captured under an LSM confocal microscope (Carl Zeiss). For counting CD45^+ cells, 5 randomly selected regions per section were photographed at a magnification of ×200, and the number of CD45^+ cells in each image was then determined. […]

[3] = PBA-treated vs vehicle-treated organs
[4] = organs of PBA-treated (10 mg/kg i.p.) vs vehicle-treated cGVHD mice

O=C(O)CCCc1ccccc1 [PBA, 4-phenyl-n-butyric acid]
proinflammatory molecule NF-κB in organs [1, 3]: inhibited
proinflammatory molecule TXNIP in organs [1, 3]: inhibited
protein level of CHOP in organs [1, 4]: lower protein levels
protein level of GRP78 in organs [1, 4]: lower protein levels
protein level of p-IRE1α in organs [1, 4]: lower protein levels
protein level of p-PERK in organs [1, 4]: lower protein levels
protein level of p-eIF2α in organs [1, 4]: lower protein levels
CHOP-expressing macrophages migrated into lacrimal gland [2]: not observed
